According to the NIST ThermoML archive (doi:10.1016/j.jct.2010.08.021):

Experiment: mn = molality of the nth substance listed, in mol/kg
Conditions: 101 kPa, Liquid; for speed of sound: Sing-around technique in a fixed-path interferometer; for mass density: Vibrating tube method

NCC(=O)O [2-aminoacetic acid] + O
Conditions	mass density [kg/m3]	speed of sound [m/s]
288.15 K, m1 = 0.0303	1000.1	1468.3
288.15 K, m1 = 0.0407	1000.43	1468.9
288.15 K, m1 = 0.0487	1000.69	1469.4
288.15 K, m1 = 0.0549	1000.89	1469.7
288.15 K, m1 = 0.0649	1001.22	1470.3
288.15 K, m1 = 0.066	1001.25	1470.3
288.15 K, m1 = 0.0799	1001.7	1471.1
288.15 K, m1 = 0.0959	1002.22	1472
288.15 K, m1 = 0.1125	1002.76	1472.9
288.15 K, m1 = 0.1349	1003.48	1474.1
288.15 K, m1 = 0.1608	1004.3	1475.5
288.15 K, m1 = 0.1908	1005.26	1477.2
288.15 K, m1 = 0.2165	1006.07	1478.6
288.15 K, m1 = 0.2303	1006.51	1479.4
288.15 K, m1 = 0.2506	1007.15	1480.5
288.15 K, m1 = 0.2735	1007.87	1481.8
293.15 K, m1 = 0.0303	999.187	1484.4
293.15 K, m1 = 0.0407	999.52	1484.9
293.15 K, m1 = 0.0487	999.773	1485.4
293.15 K, m1 = 0.0549	999.972	1485.7
293.15 K, m1 = 0.0649	1000.29	1486.2
293.15 K, m1 = 0.066	1000.32	1486.3
293.15 K, m1 = 0.0799	1000.77	1487
293.15 K, m1 = 0.0959	1001.28	1487.9
293.15 K, m1 = 0.1125	1001.81	1488.8
293.15 K, m1 = 0.1349	1002.52	1489.9
293.15 K, m1 = 0.1608	1003.34	1491.3
293.15 K, m1 = 0.1908	1004.28	1493
293.15 K, m1 = 0.2165	1005.08	1494.4
293.15 K, m1 = 0.2303	1005.52	1495.1
293.15 K, m1 = 0.2506	1006.15	1496.2
293.15 K, m1 = 0.2735	1006.86	1497.4
298.15 K, m1 = 0.0303	–	1498.6
298.15 K, m1 = 0.0407	998.344	1499.1
298.15 K, m1 = 0.0487	–	1499.5
298.15 K, m1 = 0.0549	998.79	1499.9
298.15 K, m1 = 0.0649	999.104	1500.4
298.15 K, m1 = 0.066	999.138	1500.4
298.15 K, m1 = 0.0799	999.58	1501.2
298.15 K, m1 = 0.0959	1000.09	1502
298.15 K, m1 = 0.1125	1000.61	1502.9
298.15 K, m1 = 0.1349	1001.31	1504
298.15 K, m1 = 0.1608	1002.12	1505.3
298.15 K, m1 = 0.1908	1003.05	1506.9
298.15 K, m1 = 0.2165	1003.84	1508.2
298.15 K, m1 = 0.2303	1004.27	1508.9
298.15 K, m1 = 0.2506	1004.9	1510
298.15 K, m1 = 0.2735	1005.61	1511.2
303.15 K, m1 = 0.0303	996.608	1510.9
303.15 K, m1 = 0.0407	996.933	1511.4
303.15 K, m1 = 0.0487	–	1511.8
303.15 K, m1 = 0.0549	997.375	1512.2
303.15 K, m1 = 0.0649	–	1512.7
303.15 K, m1 = 0.066	–	1512.7
303.15 K, m1 = 0.0799	998.158	1513.4
303.15 K, m1 = 0.0959	998.661	1514.3
303.15 K, m1 = 0.1125	999.18	1515.1
303.15 K, m1 = 0.1349	999.878	1516.2
303.15 K, m1 = 0.1608	1000.67	1517.5
303.15 K, m1 = 0.1908	1001.6	1519
303.15 K, m1 = 0.2165	1002.38	1520.3
303.15 K, m1 = 0.2303	1002.81	1521
303.15 K, m1 = 0.2506	1003.43	1522
303.15 K, m1 = 0.2735	1004.13	1523.2
308.15 K, m1 = 0.0303	994.983	1521.5
308.15 K, m1 = 0.0407	–	1522
308.15 K, m1 = 0.0487	995.552	1522.5
308.15 K, m1 = 0.0549	–	1522.8
308.15 K, m1 = 0.0649	–	1523.3
308.15 K, m1 = 0.066	–	1523.3
308.15 K, m1 = 0.0799	–	1524
308.15 K, m1 = 0.0959	997.02	1524.8
308.15 K, m1 = 0.1125	997.536	1525.6
308.15 K, m1 = 0.1349	998.23	1526.7
308.15 K, m1 = 0.1608	999.021	1528
308.15 K, m1 = 0.1908	999.936	1529.5
308.15 K, m1 = 0.2165	1000.72	1530.7
308.15 K, m1 = 0.2303	1001.14	1531.4
308.15 K, m1 = 0.2506	1001.76	1532.4
308.15 K, m1 = 0.2735	1002.45	1533.5
313.15 K, m1 = 0.0303	993.159	1530.6
313.15 K, m1 = 0.0407	993.481	1531.1
313.15 K, m1 = 0.0487	993.725	1531.5
313.15 K, m1 = 0.0549	993.917	1531.8
313.15 K, m1 = 0.0649	994.224	1532.3
313.15 K, m1 = 0.066	994.257	1532.3
313.15 K, m1 = 0.0799	994.689	1533
313.15 K, m1 = 0.0959	995.187	1533.8
313.15 K, m1 = 0.1125	–	1534.6
313.15 K, m1 = 0.1349	–	1535.6
313.15 K, m1 = 0.1608	–	1536.9
313.15 K, m1 = 0.1908	998.083	1538.3
313.15 K, m1 = 0.2165	–	1539.5
313.15 K, m1 = 0.2303	999.28	1540.2
313.15 K, m1 = 0.2506	999.893	1541.2
313.15 K, m1 = 0.2735	1000.58	1542.3
